Experimental findings from patent US20260034094A1, “COMPOSITIONS AND METHODS FOR INDUCING FERROPTOSIS” (Kojin Therapeutics, Inc., priority 2022, published 2026) are described below.

One assay concerns the target human recombinant GCL (Homo sapiens (Human), UniProt P48506). Description: GCL enzyme profiling assay (ADP-Glo luminescence). The conditions noted are these: human recombinant GCL, ADP-Glo; read-out: GCL IC50. Type of assay: biochemical. The gist of the method:
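IC50 fitted by four-parameter logistic to luminescent ADP formation (ADP-Glo). Reaction at room temperature in HEPES pH 7.5 with 30 mM MgCl2, 0.2% F-127, 1% DMSO; 5 nM GCL and 0.6 mM ATP preincubated 1 h before adding 1 mM glutamate plus 1.2 mM α-aminobutyrate for 2 h.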

For a further assay, the system named is RKN cells. The experiment in a line: RKN cell profiling assay (cell viability, CellTiter-Glo). The conditions noted are these: cell viability, read-out: Cell Killing EC50. The class given is cell-based. A digest of the protocol:
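Viability read by CellTiter-Glo luminescence after 96 h compound exposure (0.5% DMSO final) of cells plated at 1,000/well in 10% FBS F-12 and allowed 24 h attachment. Four-parameter fits gave EC50; rescue arms used ferrostatin-1, 1.5 μM, present from seeding.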
(ATP-based viability assays read luminescence as a measure of living cells.)

Chain of human recombinant GCL (P48506 whole entry): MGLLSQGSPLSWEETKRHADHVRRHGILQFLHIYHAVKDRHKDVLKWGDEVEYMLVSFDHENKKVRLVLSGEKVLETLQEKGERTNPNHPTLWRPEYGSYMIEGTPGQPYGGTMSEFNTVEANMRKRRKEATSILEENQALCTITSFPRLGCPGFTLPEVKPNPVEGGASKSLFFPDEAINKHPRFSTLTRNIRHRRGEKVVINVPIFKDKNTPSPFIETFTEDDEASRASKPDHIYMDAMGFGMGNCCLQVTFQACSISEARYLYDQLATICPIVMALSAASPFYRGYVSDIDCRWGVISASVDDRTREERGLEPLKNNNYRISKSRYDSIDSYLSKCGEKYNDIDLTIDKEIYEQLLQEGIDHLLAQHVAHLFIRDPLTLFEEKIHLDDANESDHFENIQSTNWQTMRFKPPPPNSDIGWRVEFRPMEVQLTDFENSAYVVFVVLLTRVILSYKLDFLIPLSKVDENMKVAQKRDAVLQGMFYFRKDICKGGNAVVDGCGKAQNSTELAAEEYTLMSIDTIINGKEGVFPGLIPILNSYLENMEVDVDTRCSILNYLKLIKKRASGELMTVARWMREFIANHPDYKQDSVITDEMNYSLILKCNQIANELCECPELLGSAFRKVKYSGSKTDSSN

Regarding `N=S(=O)(CCC(Cc1ccccc1)C(F)(F)F)CC[C@H](N)C(=O)O` (stereo partly drawn) [Compound 292, (2S)-2-amino-4-(3-benzyl-4,4,4-trifluorobutylsulfonimidoyl)butanoic acid], the IC50 at human recombinant GCL is ≤ 20 µM. In the assay with RKN cells, the concentration for a half-maximal effect (EC50) was ≥ 1000 µM.

Take `CC(CCS(=N)(=O)CC[C@H](N)C(=O)O)(c1ccccc1)C(F)(F)F` (some centres unmarked) [Compound 293]: the half-maximal inhibitory concentration (IC50) at human recombinant GCL is ≤ 20 µM. Besides, the EC50 in the assay on RKN cells was ≥ 1000 µM.

For `N=S(=O)(CC[C@H](N)C(=O)O)CCC12CC(C1)C2` (some centres unmarked) [Compound 294], the concentration for half-maximal inhibition (IC50) on human recombinant GCL is ≤ 20 µM. Moreover, the EC50 in the assay on RKN cells was < 1000 µM.

As to `COC(C)(C)CCCS(=N)(=O)CC[C@H](N)C(=O)O` (some centres unmarked) [Compound 295], the concentration for half-maximal inhibition (IC50) at human recombinant GCL lay in the range of 20 to 2000 µM. Besides, the 50% effective concentration (EC50) in the assay on RKN cells was ≥ 1000 µM.

Consider `N=S(=O)(CC[C@H](N)C(=O)O)CCC1(C(F)(F)F)CCC1` (some centres unmarked) [Compound 296], for which the half-inhibitory concentration (IC50) on human recombinant GCL is ≤ 20 µM. Further, in the assay with RKN cells, the EC50 was < 1000 µM.

Take `N=S(=O)(CC[C@H](N)C(=O)O)CCC1(O)CCCCC1` (some centres unmarked) [Compound 297]: the 50% inhibitory concentration (IC50) on human recombinant GCL lay in the range of 20 to 2000 µM. Besides, the concentration giving a half-maximal response (EC50) in the assay on RKN cells is ≥ 1000 µM.

Consider `C#CC(C)(C)CCS(=N)(=O)CC[C@H](N)C(=O)O` (some centres unmarked) [Compound 299], for which, at human recombinant GCL, the IC50 was 20 to 2000 µM. In addition, the EC50 in the assay on RKN cells is < 1000 µM.

Consider `CC1(CCS(=N)(=O)CC[C@H](N)C(=O)O)CCCCC1` (some centres unmarked) [Compound 300], for which the IC50 at human recombinant GCL is 20 to 2000 µM. In the assay on RKN cells, the 50% effective concentration (EC50) is ≥ 1000 µM.

As for `N=S(=O)(CC[C@H](N)C(=O)O)CCC(O)(C(F)(F)F)C(F)(F)F` (some centres unmarked) [Compound 301], the IC50 at human recombinant GCL was ≤ 20 µM. Besides, the EC50 in the assay with RKN cells is < 1000 µM.

As to `N=S(=O)(CC[C@H](N)C(=O)O)CCC1(O)[C@H]2C[C@@H]3C[C@@H](C[C@H]1C3)C2` (some centres unmarked) [Compound 302], the IC50 at human recombinant GCL was 20 to 2000 µM. Besides, the half-maximal effective concentration (EC50) with RKN cells is ≥ 1000 µM.

For the compound `N=S(=O)(CC[C@H](N)C(=O)O)CCC1(O)CC(F)(F)C1` (some centres unmarked) [Compound 303], the IC50 at human recombinant GCL lay in the range of 20 to 2000 µM. Further, the EC50 with RKN cells is < 1000 µM.

On to `COC(=O)C(CCS(=N)(=O)CC[C@H](N)C(=O)O)C(F)(F)F` (some centres unmarked) [Compound 305], for which, at human recombinant GCL, the half-maximal inhibitory concentration (IC50) was ≤ 20 µM. In addition, the concentration for a half-maximal effect (EC50) in the assay with RKN cells was ≥ 1000 µM.

As for `N=S(=O)(CCC(C(=O)O)C(F)(F)F)CC[C@H](N)C(=O)O` (some centres unmarked) [Compound 306], the IC50 on human recombinant GCL is ≤ 20 µM. Besides, the EC50 in the assay on RKN cells was < 1000 µM.

As for `CNC(=O)C(CCS(=N)(=O)CC[C@H](N)C(=O)O)C(F)(F)F` (some centres unmarked) [Compound 307], the concentration for half-maximal inhibition (IC50) on human recombinant GCL was in the range of 20 to 2000 µM. In addition, in the assay on RKN cells, the EC50 is < 1000 µM.

With `N=S(=O)(CCC(C(N)=O)C(F)(F)F)CC[C@H](N)C(=O)O` (some centres unmarked) [Compound 308], the IC50 at human recombinant GCL is 20 to 2000 µM. Also, the EC50 in the assay with RKN cells is < 1000 µM.

Take `N=S(=O)(CCC(c1ccccc1Cl)C(F)(F)F)CC[C@H](N)C(=O)O` (some centres unmarked) [Compound 309]: the IC50 at human recombinant GCL was ≤ 20 µM. Also, the EC50 in the assay on RKN cells is < 1000 µM.

Take `N=S(=O)(CCC(c1ccc2ccccc2c1)C(F)(F)F)CC[C@H](N)C(=O)O` (some centres unmarked) [Compound 310]: on human recombinant GCL, the IC50 was ≤ 20 µM. In the assay with RKN cells, the EC50 is < 1000 µM.

With `CC1(CCCS(=N)(=O)CC[C@H](N)C(=O)O)COC1` (some centres unmarked) [Compound 312], the IC50 at human recombinant GCL lay in the range of 20 to 2000 µM. In the assay with RKN cells, the concentration for a half-maximal effect (EC50) was < 1000 µM.

On to `COCC(CCS(=N)(=O)CC[C@H](N)C(=O)O)C(F)(F)F` (some centres unmarked) [Compound 319], for which the IC50 at human recombinant GCL was in the range of 20 to 2000 µM. Besides, the concentration giving a half-maximal response (EC50) in the assay on RKN cells was < 1000 µM.

On to `COCC(C)(C)CCS(=N)(=O)CC[C@H](N)C(=O)O` (some centres unmarked) [Compound 321], for which the IC50 at human recombinant GCL is 20 to 2000 µM. For the same compound, in the assay with RKN cells, the EC50 was < 1000 µM.

`N=S(=O)(CC[C@H](N)C(=O)O)CCC(O)(c1ccc(OC(F)(F)F)cc1)C(F)(F)F` (stereo partly drawn) [Compound 330, (2S)-2-amino-4-(4,4,4-trifluoro-3-hydroxy-3-(4-(trifluoromethoxy)phenyl)butylsulfonimidoyl)butanoic acid]: the IC50 at human recombinant GCL was ≤ 20 µM. In the assay on RKN cells, the EC50 is ≥ 1000 µM.

Take `N=S(=O)(CC[C@H](N)C(=O)O)CCC(O)(c1cc2ccccc2cn1)C(F)(F)F` (stereo partly drawn) [Compound 331, (2S)-2-amino-4-(4,4,4-trifluoro-3-hydroxy-3-(isoquinolin-3-yl)butylsulfonimidoyl)butanoic acid]: the IC50 at human recombinant GCL was ≤ 20 µM. The half-maximal effective concentration (EC50) in the assay on RKN cells is < 1000 µM.

For orientation: IC50 means the point on the concentration scale where inhibition reaches its midpoint. One may read the EC50 as the concentration needed to bring the measured effect to its halfway point.
